Measured values as given in US12139508B2, “Steroid derivative regulators, method for preparing the same, and uses thereof” (JIANGSU HANSOH PHARMACEUTICAL GROUP CO., LTD., priority 2018, dated 2024).
Read-outs that look alike come from different tables or passages of the source.

Tests used:
forced-swimming mice = assay: In vivo pharmacodynamic test in the forced swimming model in mice; settings: ICR mice; for Mean (immobility, %): 100*floating time/240 s; for Immobility time during the latter four minutes compared with that of the model group: forced swimming
Experimental: The antidepressant effect of the compound was evaluated by the forced swimming model in mice.
Male ICR mice (25-35 g) were adapted in the test environment for 3 days before the forced swimming test.
According to the test design, the mice were randomly grouped on the day before the test according to body weight, with 12 mice in each group. Before the test, the compounds of each example were administered intragastrically according to the Tmax thereof in the brain in mice pharmacokinetic test as follows: • 1) Model group (0.5% CMC-Na-1% Tween 80 solution, p.o., 10 mL/kg); • 2) Compounds of Example 2, Example 3, Example 5, Example 6, Example 9, Examples 59-63, Examples 71-73, Example 103, Example 135, Example 137, Example 145 and Example 146 (10 mg/kg, p.o., 10 mL/kg); Example 13 and Example 74 (5 mg/kg, p.o., 5 mL/kg).
When being administered, the compounds of each example were suspended in 0.5% CMC-Na+1% Tween 80 solution to the desired concentration.
0.5-1 hour after administration, ICR mice were placed in a forced swimming device (transparent glass drum (water depth 18 cm, water temperature 25-26° C.), one mouse per tank) and forced to swim for 6 minutes. The forced swimming device recorded the floating time of the ICR mice during the entire 6 minutes, and the data of the latter four minutes were used for data analysis. The mice were taken out immediately after the swimming test, wiped dry and put back in their original cages.
Note: The criterion for determining the immobility time is that the mouse stops struggling in water and floats, and there are only slight limb movements to keep the head floating on the water.
3.4 Data Analysis Floating time percentage=100*floating time/240 s.

[1] = Pharmacokinetic assay in Balb/c mice (plasma and brain tissue); assay type: in vivo; settings: mouse, po, 5 mg/kg p.o., male Balb/c mice; for AUC(0-t): read-out: Area under curve AUC0-t; for AUC(0-inf): read-out: Area under curve AUC0-∞; for half-life: read-out: Half-life t1/2 (converted); for MRT: read-out: Mean residence time MRT; for Tmax: read-out: Peak time tmax; for Cmax: read-out: Plasma concentration Cmax
How it was run: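 Compound levels in plasma and brain were measured by LC/MS/MS with an internal standard after protein precipitation with acetonitrile. Samples came from overnight-fasted male Balb/c mice given 5 mg/kg p.o., with cardiac blood drawn at 0–24 h. Pharmacokinetic parameters were then calculated.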

Row | SMILES | Mean (immobility, %) (forced-swimming mice; dose 10 mpk p.o.) [%] | AUC(0-t) ([1]; brain tissue) [ng·h/mL] | AUC(0-inf) ([1]; brain tissue) [ng·h/mL] | half-life ([1]; brain tissue) [h] | MRT ([1]; brain tissue) [h] | Tmax ([1]; brain tissue) [h] | Cmax ([1]; brain tissue) [ng/mL] | AUC(0-t) ([1]; plasma) [ng·h/mL] | AUC(0-inf) ([1]; plasma) [ng·h/mL] | half-life ([1]; plasma) [h] | MRT ([1]; plasma) [h] | Tmax ([1]; plasma) [h] | Cmax ([1]; plasma) [ng/mL] | Mean (immobility, s) (forced-swimming mice; dose 10 mpk p.o., latter four minutes of 6 min swim) [s] | Immobility time during the latter four minutes compared with that of the model group (forced-swimming mice) | Mean (immobility, %) (forced-swimming mice; dose 5 mpk p.o.) [%]
1 | C[C@@]1(O)CC[C@H]2[C@H](CC[C@@H]3[C@@H]2CC[C@@]2(C)[C@H]3[C@@H]3C[C@@H]3[C@@H]2C(=O)Cn2cc(C#N)cn2)C1 [Example 2, 1-(2-((2R,4aS,4bR,6aS,7S,7aS,8aR,8bR,8cR,10aR)-2-hydroxy-2,6a-dimethyloctadecahydrocyclopropa[4,5]cyclopenta[1,2-a]phenanthren-7-yl)-2-oxoethyl)-1H-pyrazole-4-carbonitrile] | 54.26 | 840 | 913 | 2.84 | 2.39 | 0.5 | 637 | 1360 | 1370 | 0.54 | 1.21 | 0.5 | 1100 | – | – | –
2 | C[C@@]1(O)CC[C@H]2[C@H](CC[C@@H]3[C@@H]2CC[C@@]2(C)[C@H]3[C@@H]3C[C@@H]3[C@@H]2C(=O)Cn2ccc(C#N)n2)C1 [Example 3, 1-(2-((2R,4aS,4bR,6aS,7S,7aS,8aR,8bR,8cR,10aR)-2-hydroxy-2,6a-dimethyloctadecahydrocyclopropa[4,5]cyclopenta[1,2-a]phenanthren-7-yl)-2-oxoethyl)-1H-pyrazole-3-carbonitrile] | 28.50 | 719 | 722 | 0.5 | 1.1 | 0.5 | 690 | 570 | 574 | 0.5 | 1.01 | 0.5 | 673 | 68.39 | significantly different | –
3 | C[C@@]1(O)CC[C@H]2[C@H](CC[C@@H]3[C@@H]2CC[C@@]2(C)[C@H]3[C@@H]3C[C@@H]3[C@@H]2C(=O)Cn2cc(C(F)(F)F)cn2)C1 [Example 5, 1-((2R,4aS,4bR,6aS,7S,7aS,8aR,8bR,8cR,10aR)-2-Hydroxy-2,6a-dimethyloctadecahydrocyclopropa[4,5]cyclopenta[1,2-a]phenanthren-7-yl)-2-(4-(trifluoromethyl)-1H-pyrazol-1-yl)ethan-1-one] | 59.93 | 2300 | 3070 | 4.72 | 5.53 | 0.5 | 1410 | 1240 | 1250 | 5.12 | 4.8 | 0.5 | 461 | – | – | –
4 | C[C@@H]1C[C@H](C(=O)Cn2cc(C#N)cn2)[C@@]2(C)CC[C@H]3[C@@H](CC[C@@H]4C[C@](C)(O)CC[C@@H]43)[C@H]12 [Example 13, 1-(2-((3R,5R,8R,9R,10S,13S,14S,15R)-3-Hydroxy-3,13,15-trimethylhexadecahydro-1H-cyclopenta[a]phenanthren-17-yl)-2-oxoethyl)-1H-pyrazole-4-carbonitrile] | – | 4730 | 4740 | 2.5 | 3.9 | 1 | 1060 | 5060 | 5070 | 2.5 | 3.6 | 1 | 1210 | – | – | 57.60
5 | C[C@@H]1C[C@H](C(=O)Cn2ccc(C#N)n2)[C@@]2(C)CC[C@H]3[C@@H](CC[C@@H]4C[C@](C)(O)CC[C@@H]43)[C@H]12 [Example 60, 1-(2-((3R,5R,8R,9R,10S,13S,14S,15R,17S)-3-Hydroxy-3,13,15-trimethylhexadecahydro-1H-cyclopenta[a]phenanthren-17-yl)-2-oxoethyl)-1H-pyrazole-3-carbonitrile] | 35.30 | 2400 | 2500 | 2.37 | 2.35 | 1 | 998 | 1700 | 1770 | 1.64 | 1.43 | 0.5 | 720 | – | significantly different | –
6 | C[C@@]1(O)CC[C@H]2[C@H](CC[C@@H]3[C@@H]2CC[C@]2(C)C(C(=O)Cn4cc(C#N)cn4)C[C@@H](C4CC4)[C@@H]32)C1 (stereo partly drawn) [Example 71, 1-(2-((3R,5R,8R,9R,10S,13S,14S,15S)-15-Cyclopropyl-3-hydroxy-3,13-dimethylhexadecahydro-1H-cyclopenta[a]phenanthren-17-yl)-2-oxoethyl)-1H-pyrazole-4-carbonitrile] | 55.92 | 1130 | 1280 | 2 | 3.66 | 1 | 383 | 1580 | 1760 | 2.04 | 3.5 | 1 | 508 | – | – | –
7 | CC[C@@H]1C[C@H](C(=O)Cn2ccc(C#N)n2)[C@@]2(C)CC[C@H]3[C@@H](CC[C@@H]4C[C@](C)(O)CC[C@@H]43)[C@H]12 [Example 137, 1-(2-((3R,5R,8R,9R,10S,13S,14S,15R,17S)-15-Ethyl-3-hydroxy-3,13-dimethylhexadecahydro-1H-cyclopenta[a]phenanthren-17-yl)-2-oxoethyl)-1H-pyrazole-3-carbonitrile] | 36.92 | 2130 | 3160 | 6.02 | 7.58 | 1 | 613 | 2780 | 3790 | 3.85 | 5.88 | 1 | 763 | – | significantly different | –
8 | C[C@@]1(O)CC[C@H]2[C@H](CC[C@@H]3[C@@H]2CC[C@@]2(C)[C@H]3[C@H](C3CC3)C[C@@H]2C(=O)Cn2ccnn2)C1 [Example 145, 1-((3R,5R,8R,9R,10S,13S,14S,15S,17S)-15-Cyclopropyl-3-hydroxy-3,13-dimethylhexadecahydro-1H-cyclopenta[a]phenanthren-17-yl)-2-(1H-1,2,3-triazol-1-yl)ethan-1-one] | – | 4820 | 5270 | 2.09 | 3.4 | 1 | 1480 | 13400 | 13400 | 1.75 | 3.47 | 1 | 2990 | – | – | 30.72
9 | C[C@@]1(O)CC[C@H]2[C@H](CC[C@@H]3[C@@H]2CC[C@@]2(C)[C@H]3[C@H](C3CC3)C[C@@H]2C(=O)Cn2ncnn2)C1 [Example 146, 1-((3R,5R,8R,9R,10S,13S,14S,15S,17S)-15-Cyclopropyl-3-hydroxy-3,13-dimethylhexadecahydro-1H-cyclopenta[a]phenanthren-17-yl)-2-(2H-tetrazol-2-yl)ethan-1-one] | – | 8680 | 12500 | 4.66 | 6.73 | 1 | 1970 | 7790 | 8000 | 1.45 | 2.97 | 1 | 2090 | – | significantly different | 33.54
